Results as given in ChEMBL document CHEMBL1130924, “Potent inhibition of protein-tyrosine phosphatase-1B using the phosphotyrosyl mimetic fluoro-O-malonyl tyrosine (FOMT)” (Bioorg Med Chem Lett, 1998).
Peptide text beside a SMILES is read from it. * marks the point of attachment. X1 = O=C(O)C(C(=O)O)*

Columns and labels:
[1] = target: T1, Tyrosine-protein phosphatase non-receptor type 1 (Homo sapiens, UniProt P18031); assay: Compound concentration that cause 50% inhibition of protein-tyrosine phosphatase 1B (PTP1B)
T1 sequence (P18031 whole entry): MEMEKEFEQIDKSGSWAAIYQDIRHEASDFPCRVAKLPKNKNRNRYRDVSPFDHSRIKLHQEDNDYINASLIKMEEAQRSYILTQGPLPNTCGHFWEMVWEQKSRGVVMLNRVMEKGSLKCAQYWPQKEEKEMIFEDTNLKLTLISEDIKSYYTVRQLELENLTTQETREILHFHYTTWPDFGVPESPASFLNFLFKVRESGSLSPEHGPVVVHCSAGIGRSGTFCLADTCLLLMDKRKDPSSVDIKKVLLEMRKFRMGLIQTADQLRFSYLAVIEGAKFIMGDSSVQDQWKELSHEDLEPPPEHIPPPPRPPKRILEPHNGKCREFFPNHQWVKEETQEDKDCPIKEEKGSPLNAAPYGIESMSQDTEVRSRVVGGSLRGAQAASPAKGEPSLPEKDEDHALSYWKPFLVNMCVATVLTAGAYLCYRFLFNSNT

[2] = target: T1, Tyrosine-protein phosphatase non-receptor type 1; assay: Compound was evaluated for the binding affinity against protein-tyrosine phosphatase 1B (PTP1B)

## N[C@@H](Cc1ccc(OC(F)(C(=O)O)C(=O)O)cc1)C(=O)O [FLUOROMALONYL TYROSINE]
[1]
  IC50: 1 µM

## CC(C)C[C@@H]1NC(=O)[C@H](Cc2ccc(OC(F)(C(=O)O)C(=O)O)cc2)NC(=O)[C@@H](CCC(=O)O)NC(=O)[C@H](CC(=O)O)NC(=O)[C@@H](C)NC(=O)[C@H](CC(=O)O)NC(=O)CSCC(C(N)=O)NC1=O (some centres undefined)
[2]
  Ki: 0.17 µM

## CC(=O)N[C@@H](CC(=O)O)C(=O)N[C@@H](C)C(=O)N[C@@H](CC(=O)O)C(=O)N[C@@H](CCC(=O)O)C(=O)N[C@@H](Cc1ccc(OC(C(=O)O)C(=O)O)cc1)C(=O)N[C@@H](CC(C)C)C(N)=O (Ac-DADEY(X1)L-NH2)
[2]
  Ki: 13 µM

## N[C@@H](Cc1ccc(OC(C(=O)O)C(=O)O)cc1)C(=O)O
[1]
  IC50: 10 µM
